Reference: ChEMBL document CHEMBL3596129, “Osthol and curcumin as inhibitors of human Pgp and multidrug efflux pumps of Staphylococcus aureus: reversing the resistance against frontline antibacterial drugs” (Medchemcomm, 2014)

Legend:
[1] = target: T1, Quinolone resistance protein NorA (Staphylococcus aureus) (UniProt P0A0J7); experiment: Inhibition of NorA overexpressed in Staphylococcus aureus SA1199B assessed as decrease in ciprofloxacin MIC at 25 uM after 24 hrs by broth checkerboard method relative to control
T1 sequence (whole entry): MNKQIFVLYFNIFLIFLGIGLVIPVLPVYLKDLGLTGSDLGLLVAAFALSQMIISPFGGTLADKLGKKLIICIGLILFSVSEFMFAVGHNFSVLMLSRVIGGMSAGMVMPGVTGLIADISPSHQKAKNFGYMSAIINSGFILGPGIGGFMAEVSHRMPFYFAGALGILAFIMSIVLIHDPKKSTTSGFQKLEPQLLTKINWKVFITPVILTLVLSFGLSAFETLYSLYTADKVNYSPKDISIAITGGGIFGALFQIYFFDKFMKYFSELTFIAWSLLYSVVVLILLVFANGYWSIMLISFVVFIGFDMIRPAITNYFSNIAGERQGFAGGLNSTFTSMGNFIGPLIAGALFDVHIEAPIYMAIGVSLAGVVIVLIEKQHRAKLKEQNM

Staphylococcus aureus [2] = experiment: Inhibition of TetK overexpressed in Staphylococcus aureus K2192 assessed as tetracycline MIC at 25 uM after 24 hrs by broth checkerboard method (reference value: 32 ug/ml)
[3] = target: T2, ATP-dependent translocase ABCB1 (Homo sapiens, UniProt P08183); experiment: Inhibition of P-gp in human LS180 cells after 90 mins by rhodamine123 cell exclusion method; format: cell-based
Staphylococcus aureus [4] = experiment: Inhibition of MsrA overexpressed in Staphylococcus aureus K2191 assessed as decrease in erythromycin MIC at 25 uM after 24 hrs by broth checkerboard method relative to control
[5] = target: T3, Fluoroquinolone resistance protein (Staphylococcus aureus) (UniProt A0A0C5K5S3); experiment: Inhibition of MdeA overexpressed in Staphylococcus aureus Mupr-1 assessed as decrease in mupirocin MIC at 25 uM after 24 hrs by broth checkerboard method relative to control
T3 sequence (whole entry): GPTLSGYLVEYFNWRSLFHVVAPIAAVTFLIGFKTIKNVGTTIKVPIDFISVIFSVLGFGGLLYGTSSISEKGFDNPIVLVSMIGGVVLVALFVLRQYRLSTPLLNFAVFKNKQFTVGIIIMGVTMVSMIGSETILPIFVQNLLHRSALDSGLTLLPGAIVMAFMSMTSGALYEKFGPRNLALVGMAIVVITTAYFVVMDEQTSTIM

[6] = target: T3, Fluoroquinolone resistance protein (Staphylococcus aureus); experiment: Inhibition of MdeA overexpressed in Staphylococcus aureus Mupr-1 assessed as mupirocin MIC at 25 uM after 24 hrs by broth checkerboard method (reference value: 256 ug/ml)
[7] = target: T1, Quinolone resistance protein NorA (Staphylococcus aureus); experiment: Inhibition of NorA overexpressed in Staphylococcus aureus SA1199B assessed as ciprofloxacin MIC at 25 uM after 24 hrs by broth checkerboard method (reference value: 8 ug/ml)
Staphylococcus aureus [8] = experiment: Inhibition of MsrA overexpressed in Staphylococcus aureus K2191 assessed as erythromycin MIC at 25 uM after 24 hrs by broth checkerboard method (reference value: 64 ug/ml)
[9] = target: T2, ATP-dependent translocase ABCB1; experiment: Inhibition of P-gp in human LS180 cells at 50 uM after 90 mins by rhodamine123 cell exclusion method; format: cell-based; conditions: ls180, 1.5 h
Staphylococcus aureus [10] = experiment: Inhibition of TetK overexpressed in Staphylococcus aureus K2192 assessed as decrease in tetracycline MIC at 25 uM after 24 hrs by broth checkerboard method relative to control
CYP2D6 = CYP2D6 (Homo sapiens, UniProt P10635); experiment: Inhibition of human CYP2D6 at 10 uM preincubated for 10 mins with cofactor followed by mixture of enzyme-substrate addition by fluorescence assay relative to control; format: ADME
Sequence of CYP2D6 (P10635 whole entry): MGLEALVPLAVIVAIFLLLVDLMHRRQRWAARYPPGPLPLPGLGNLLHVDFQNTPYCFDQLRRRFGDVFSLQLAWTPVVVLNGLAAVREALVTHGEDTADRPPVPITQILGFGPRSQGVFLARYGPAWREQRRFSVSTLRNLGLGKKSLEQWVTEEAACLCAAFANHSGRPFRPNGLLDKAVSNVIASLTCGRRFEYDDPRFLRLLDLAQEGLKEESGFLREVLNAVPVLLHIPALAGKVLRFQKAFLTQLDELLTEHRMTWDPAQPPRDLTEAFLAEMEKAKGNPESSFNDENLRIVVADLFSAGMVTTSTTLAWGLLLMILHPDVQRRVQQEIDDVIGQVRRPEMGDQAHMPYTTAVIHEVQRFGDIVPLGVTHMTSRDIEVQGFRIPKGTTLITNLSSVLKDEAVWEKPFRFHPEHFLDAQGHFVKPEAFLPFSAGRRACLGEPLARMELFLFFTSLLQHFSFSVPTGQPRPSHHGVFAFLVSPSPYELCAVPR

Staphylococcus aureus [11] = experiment: Inhibition of TetK overexpressed in Staphylococcus aureus K2192 assessed as decrease in tetracycline MIC at 50 uM after 24 hrs by broth checkerboard method relative to control
[12] = target: T3, Fluoroquinolone resistance protein (Staphylococcus aureus); experiment: Inhibition of MdeA overexpressed in Staphylococcus aureus Mupr-1 assessed as mupirocin MIC at 50 uM after 24 hrs by broth checkerboard method (reference value: 256 ug/ml)
[13] = target: T1, Quinolone resistance protein NorA (Staphylococcus aureus); experiment: Inhibition of NorA overexpressed in Staphylococcus aureus SA1199B assessed as ciprofloxacin MIC at 50 uM after 24 hrs by broth checkerboard method (reference value: 8 ug/ml)
[14] = target: T1, Quinolone resistance protein NorA (Staphylococcus aureus); experiment: Inhibition of NorA overexpressed in Staphylococcus aureus SA1199B assessed as decrease in ciprofloxacin MIC at 50 uM after 24 hrs by broth checkerboard method relative to control
Staphylococcus aureus [15] = experiment: Inhibition of MsrA overexpressed in Staphylococcus aureus K2191 assessed as decrease in erythromycin MIC at 50 uM after 24 hrs by broth checkerboard method relative to control
Staphylococcus aureus [16] = experiment: Inhibition of TetK overexpressed in Staphylococcus aureus K2192 assessed as tetracycline MIC at 50 uM after 24 hrs by broth checkerboard method (reference value: 32 ug/ml)
[17] = target: T3, Fluoroquinolone resistance protein (Staphylococcus aureus); experiment: Inhibition of MdeA overexpressed in Staphylococcus aureus Mupr-1 assessed as decrease in mupirocin MIC at 50 uM after 24 hrs by broth checkerboard method relative to control
Staphylococcus aureus [18] = experiment: Inhibition of MsrA overexpressed in Staphylococcus aureus K2191 assessed as erythromycin MIC at 50 uM after 24 hrs by broth checkerboard method (reference value: 64 ug/ml)
CYP2C9 = CYP2C9 (Homo sapiens, UniProt P11712); experiment: Inhibition of human CYP2C9 at 10 uM preincubated for 10 mins with cofactor followed by mixture of enzyme-substrate addition by fluorescence assay relative to control; format: ADME
Sequence of CYP2C9 (P11712 whole entry): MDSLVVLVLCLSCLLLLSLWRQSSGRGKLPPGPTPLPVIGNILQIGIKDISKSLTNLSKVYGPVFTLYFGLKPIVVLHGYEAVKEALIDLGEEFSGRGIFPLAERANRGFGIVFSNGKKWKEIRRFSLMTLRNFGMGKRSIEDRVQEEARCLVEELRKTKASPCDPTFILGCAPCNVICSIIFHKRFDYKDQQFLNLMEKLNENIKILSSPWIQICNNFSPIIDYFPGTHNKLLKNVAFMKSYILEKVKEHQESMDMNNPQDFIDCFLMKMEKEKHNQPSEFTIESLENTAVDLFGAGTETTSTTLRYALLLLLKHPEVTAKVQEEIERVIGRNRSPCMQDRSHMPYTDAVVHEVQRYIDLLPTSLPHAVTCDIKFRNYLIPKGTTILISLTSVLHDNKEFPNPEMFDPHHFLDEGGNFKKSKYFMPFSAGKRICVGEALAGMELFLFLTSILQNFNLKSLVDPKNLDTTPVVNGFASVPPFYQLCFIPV

CYP3A4 = CYP3A4 (Homo sapiens, UniProt P08684); experiment: Inhibition of human CYP3A4 at 10 uM preincubated for 10 mins with cofactor followed by mixture of enzyme-substrate addition by fluorescence assay relative to control; format: ADME
Sequence of CYP3A4 (P08684 whole entry): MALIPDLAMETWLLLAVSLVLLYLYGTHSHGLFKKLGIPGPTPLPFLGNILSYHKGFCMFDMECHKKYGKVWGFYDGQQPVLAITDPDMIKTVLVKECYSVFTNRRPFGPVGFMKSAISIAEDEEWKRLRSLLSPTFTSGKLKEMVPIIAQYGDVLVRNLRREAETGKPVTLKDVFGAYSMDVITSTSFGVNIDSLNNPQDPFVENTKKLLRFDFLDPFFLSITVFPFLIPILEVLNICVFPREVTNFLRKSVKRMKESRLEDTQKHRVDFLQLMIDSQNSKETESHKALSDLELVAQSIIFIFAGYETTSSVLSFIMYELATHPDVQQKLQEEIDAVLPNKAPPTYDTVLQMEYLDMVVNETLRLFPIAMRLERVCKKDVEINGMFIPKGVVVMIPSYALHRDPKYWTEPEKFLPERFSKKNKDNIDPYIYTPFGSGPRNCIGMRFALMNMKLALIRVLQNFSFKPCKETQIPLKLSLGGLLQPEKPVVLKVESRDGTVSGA

P-gp [19] = experiment: Substrate activity at P-gp in human Caco2 cells assessed as efflux ratio of apparent permeability across basolateral to apical side over apical to basolateral side at 10 uM after 90 mins by HPLC with mass spectrometric method; format: ADME, cell-based; conditions: Caco-2
P-gp [20] = experiment: Substrate activity at P-gp in human Caco2 cells assessed as apparent permeability across basolateral to apical side at 10 uM after 90 mins by HPLC with mass spectrometric method; format: ADME, cell-based; conditions: Caco-2

| Compound | fold change (FC) [1] | MIC (Staphylococcus aureus [2]) [µg/mL] | IC50 [3] [µM] | fold change (FC) (Staphylococcus aureus [4]) | fold change (FC) [5] | MIC [6] [µg/mL] | MIC [7] [µg/mL] | MIC (Staphylococcus aureus [8]) [µg/mL] | inhibition (INH) [9] | fold change (FC) (Staphylococcus aureus [10]) | other results |
| --- | --- | --- | --- | --- | --- | --- | --- | --- | --- | --- | --- |
| CC(C)=CCOc1c2occc2cc2ccc(=O)oc12 [PENTOSALEN] | 2 | 32 | 28 | 0 | 2 | 128 | 4 | 64 | Not Active | 0 |  |
| COc1cc(/C=C/C(=O)CC(=O)/C=C/c2ccc(O)c(OC)c2)ccc1O [CURCUMIN] | 8 | 32 | 62 | 0 | 0 | 256 | 1 | 64 | Not Active | 0 |  |
| Fc1ccc([C@@H]2CCNC[C@H]2COc2ccc3c(c2)OCO3)cc1 [PAROXETINE] |  |  |  |  |  |  |  |  |  |  | inhibition at 10 µM (CYP2D6): 96.5% |
| CCC/C=C1\OC(=O)C2CC3CCC12C1(OC(=O)C2=C1CCCC2)C3CCC (stereo not given) |  |  |  |  |  |  |  |  | Not Active |  | fold change (FC) (Staphylococcus aureus [11]): 0; MIC [12]: 256 µg/mL; MIC [13]: 8 µg/mL; fold change (FC) [14]: 0; fold change (FC) (Staphylococcus aureus [15]): 0; MIC (Staphylococcus aureus [16]): 32 µg/mL; fold change (FC) [17]: 0; MIC (Staphylococcus aureus [18]): 64 µg/mL |
| COc1c(C(=O)/C=C(\O)c2ccccc2)ccc2occc12 [PONGAMOL] | 2 | 32 | 88 | 0 | 0 | 256 | 4 | 64 | Not Active | 0 |  |
| CC(=O)Oc1cc(OC(C)=O)c2ccc(=O)oc2c1CC=C(C)C | 2 | 16 | 44 | 4 | 0 | 256 | 4 | 16 | Not Active | 2 |  |
| COc1c2ccoc2c(OCC=C(C)C)c2oc(=O)ccc12 [PHELLOPTERIN] | 2 | 32 | 32 | 2 | 0 | 256 | 4 | 32 | Not Active | 0 |  |
| O=C(/C=C/C=C/c1ccc2c(c1)OCO2)N1CCCCC1 | 2 | 32 |  | 0 | 0 | 256 | 4 | 64 |  | 0 |  |
| Nc1ccc(S(=O)(=O)Nc2ccnn2-c2ccccc2)cc1 [SULFAPHENAZOLE] |  |  |  |  |  |  |  |  |  |  | inhibition at 10 µM (CYP2C9): 93.7% |
| CC(=O)N1CCN(c2ccc(OCC3COC(Cn4ccnc4)(c4ccc(Cl)cc4Cl)O3)cc2)CC1 (stereo not given) [KETOCONAZOLE] |  |  |  |  |  |  |  |  |  |  | inhibition at 10 µM (CYP3A4): 95.2% |
| C=CC(C)(C)c1cc2cc3c(cc2oc1=O)OC(C)(C)C=C3 | 4 | 16 | 15 | 0 | 0 | 256 | 2 | 64 | Not Active | 2 |  |
| CC(C)=CCc1c(O)ccc2ccc(=O)oc12 [OSTHENOL] |  |  |  |  |  |  |  |  | Not Active |  | fold change (FC) (Staphylococcus aureus [11]): 0; MIC [12]: 256 µg/mL; MIC [13]: 2 µg/mL; fold change (FC) [14]: 4; fold change (FC) (Staphylococcus aureus [15]): 0; MIC (Staphylococcus aureus [16]): 32 µg/mL; fold change (FC) [17]: 0; MIC (Staphylococcus aureus [18]): 64 µg/mL |
| CC(C)=CCc1c(O)cc(O)c2ccc(=O)oc12 | 2 | 32 |  | 0 | 0 | 256 | 4 | 64 | Not Active | 0 |  |
| C[C@H]1O[C@@H](O[C@H]2[C@@H](O)C[C@H](O[C@H]3[C@@H](O)C[C@H](O[C@H]4CC[C@@]5(C)[C@H](CC[C@@H]6[C@@H]5C[C@@H](O)[C@]5(C)[C@@H](C7=CC(=O)OC7)CC[C@]65O)C4)O[C@@H]3C)O[C@@H]2C)C[C@H](O)[C@@H]1O [DIGOXIN] |  |  |  |  |  |  |  |  |  |  | efflux ratio at 1.5 h, 10 µM (P-gp [19]): 41.5; Papp B→A at 1.5 h, 10 µM (P-gp [20]): 12.4 ×10⁻⁶ cm/s |
| C/C=C(\C)C(=O)OC1c2c(ccc3ccc(=O)oc23)OC(C)(C)C1OC(=O)/C(C)=C/C (stereo not given) | 2 | 32 | 16 | 0 | 0 | 256 | 4 | 64 | Not Active | 0 |  |
